Test results: ChEMBL document CHEMBL4732050, “1,2,4-Oxadiazole topsentin analogs as staphylococcal biofilm inhibitors targeting the bacterial transpeptidase sortase A” (Eur J Med Chem, 2021)

What was measured:
Escherichia coli [1] = assay: Antibiofilm activity against Escherichia coli ATCC 25922 at 100 ug/ml after 24 hrs by crystal violet staining based assay; format: functional
Staphylococcus aureus [2] = assay: Antibiofilm activity against Staphylococcus aureus ATCC 25923 after 24 hrs by crystal violet staining based assay; format: functional
Staphylococcus aureus [3] = assay: Antibacterial activity against Staphylococcus aureus ATCC 25923 after 24 hrs by microdilution method; format: functional
Staphylococcus aureus [4] = assay: Antibacterial activity against Staphylococcus aureus ATCC 6538 after 24 hrs by microdilution method; format: functional
[5] = Inhibition of Staphylococcus aureus ATCC 25923 sortase A by FRET assay
Pseudomonas aeruginosa [6] = assay: Antibiofilm activity against Pseudomonas aeruginosa ATCC 15442 after 24 hrs by crystal violet staining based assay; format: functional
HS27 = assay: Cytotoxicity against human Hs27 cells assessed as cell viability at 0.1 to 1 uM after 72 hrs by SRB assay; format: cell-based; details: hs27, 72 h, dose 0.1-1 µM
Pseudomonas aeruginosa [7] = assay: Antibacterial activity against Pseudomonas aeruginosa ATCC 15442 after 24 hrs by microdilution method; format: functional
Escherichia coli [8] = assay: Antibacterial activity against Escherichia coli ATCC 25922 after 24 hrs by microdilution method; format: functional
Staphylococcus aureus [9] = assay: Antibiofilm activity against Staphylococcus aureus ATCC 6538 at 100 ug/ml after 24 hrs by crystal violet staining based assay; format: functional
Escherichia coli [10] = assay: Antibiofilm activity against Escherichia coli ATCC 25922 after 24 hrs by crystal violet staining based assay; format: functional
Staphylococcus aureus [11] = assay: Antibiofilm activity against Staphylococcus aureus ATCC 25923 at 100 ug/ml after 24 hrs by crystal violet staining based assay; format: functional
Staphylococcus aureus [12] = assay: Antibiofilm activity against Staphylococcus aureus ATCC 6538 after 24 hrs by crystal violet staining based assay; format: functional
Pseudomonas aeruginosa [13] = assay: Antibiofilm activity against Pseudomonas aeruginosa ATCC 15442 at 100 ug/ml after 24 hrs by crystal violet staining based assay; format: functional

MIC (Staphylococcus aureus [3]) [µg/mL] | MIC (Staphylococcus aureus [4]) [µg/mL] | IC50 [5] [nM] | MIC (Pseudomonas aeruginosa [7]) [µg/mL] | MIC (Escherichia coli [8]) [µg/mL] | SMILES | inhibition at 100 µg/mL (Escherichia coli [1]) [%] | MBIC50 (Staphylococcus aureus [2]) [µM] | MBIC50 (Pseudomonas aeruginosa [6]) [µM] | Activity (HS27) | inhibition at 100 µg/mL (Staphylococcus aureus [9]) [%] | MBIC50 (Escherichia coli [10]) [µM] | inhibition at 100 µg/mL (Staphylococcus aureus [11]) [%] | MBIC50 (Staphylococcus aureus [12]) [µM] | inhibition at 100 µg/mL (Pseudomonas aeruginosa [13]) [%]
> 100 | > 100 | 10400 | > 100 | > 100 | Cn1cc(C(=O)c2nc(-c3cn(C)c4ccc(F)cc34)no2)c2cc(F)ccc21 | < 15 | 0.7 | 49.7 | Non-Toxic | < 15 | – | – | – | –
> 100 | > 100 | – | > 100 | > 100 | Cn1cc(C(=O)c2nc(-c3cn(C)c4ccc(Cl)cc34)no2)c2cc(Br)ccc21 | < 15 | 27.7 | 53.9 | – | < 15 | – | – | – | –
> 100 | > 100 | – | > 100 | > 100 | COc1ccc2c(c1)c(-c1noc(C(=O)c3cn(C)c4ccc(Br)cc34)n1)cn2C | < 15 | 19.1 | 28.1 | – | < 15 | – | – | – | –
> 100 | > 100 | – | > 100 | > 100 | Cn1cc(C(=O)c2nc(-c3cn(C)c4ccccc34)no2)c2cc(Br)ccc21 | – | 39.5 | 39.3 | – | < 15 | 39.3 | – | – | –
> 100 | > 100 | – | > 100 | > 100 | Cn1cc(C(=O)c2nc(-c3cn(C)c4ccc(Br)cc34)no2)c2ccccc21 | < 15 | – | 78.6 | – | < 15 | – | < 15 | – | –
> 100 | > 100 | – | > 100 | > 100 | Cn1cc(C(=O)c2nc(-c3cn(C)c4ccccc34)no2)c2ccccc21 | – | 14 | 36.7 | – | – | 72.1 | – | 53.6 | –
> 100 | > 100 | – | > 100 | > 100 | COc1ccc2c(c1)c(C(=O)c1nc(-c3cn(C)c4ccc(Br)cc34)no1)cn2C | < 15 | 41 | – | – | < 15 | – | – | – | < 15
> 100 | > 100 | – | > 100 | > 100 | COc1ccc2c(c1)c(C(=O)c1nc(-c3cn(C)c4ccc(F)cc34)no1)cn2C | < 15 | 39.6 | 11.6 | – | < 15 | – | – | – | –
> 100 | > 100 | 2200 | > 100 | > 100 | Cn1cc(C(=O)c2nc(-c3cn(C)c4ccc(Br)cc34)no2)c2cc(F)ccc21 | < 15 | 9.7 | – | Non-Toxic | < 15 | – | – | – | < 15
> 100 | > 100 | 2200 | > 100 | > 100 | COc1ccc2c(c1)c(C(=O)c1nc(-c3cn(C)c4ccc(OC)cc34)no1)cn2C | < 15 | 2.2 | 74.7 | Non-Toxic | < 15 | – | – | – | –
> 100 | > 100 | – | > 100 | > 100 | COc1ccc2c(c1)c(C(=O)c1nc(-c3cn(C)c4ccccc34)no1)cn2C | – | 33.1 | 30 | – | < 15 | 55.4 | – | – | –
> 100 | > 100 | – | > 100 | > 100 | Cn1cc(C(=O)c2nc(-c3cn(C)c4ccc(F)cc34)no2)c2cc(Br)ccc21 | – | 29.6 | – | – | < 15 | 45.7 | – | – | < 15
> 100 | > 100 | – | > 100 | > 100 | COc1ccc2c(c1)c(-c1noc(C(=O)c3cn(C)c4ccccc34)n1)cn2C | < 15 | – | 47.4 | – | < 15 | – | < 15 | – | –
> 100 | > 100 | – | > 100 | > 100 | COc1ccc2c(c1)c(-c1noc(C(=O)c3cn(C)c4ccc(F)cc34)n1)cn2C | < 15 | 14.8 | 52.1 | – | < 15 | – | – | – | –
> 100 | > 100 | – | > 100 | > 100 | Cn1cc(C(=O)c2nc(-c3cn(C)c4ccc(F)cc34)no2)c2ccccc21 | < 15 | 30.4 | 24 | – | < 15 | – | – | – | –
> 100 | > 100 | – | > 100 | > 100 | Cn1cc(C(=O)c2nc(-c3cn(C)c4ccc(Cl)cc34)no2)c2ccccc21 | – | 47.6 | 53.5 | – | < 15 | 59.6 | – | – | –
> 100 | > 100 | – | > 100 | > 100 | COc1ccc2c(c1)c(C(=O)c1nc(-c3cn(C)c4ccc(Cl)cc34)no1)cn2C | < 15 | – | – | – | < 15 | – | < 15 | – | < 15
